# Results reported in PubChem BioAssay (NCI).
#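 A five-concentration, 48-hour dose response in 96-well plates underlies each endpoint, interpolated linearly between surrounding concentrations. GI50: concentration for 50% inhibition of growth. TGI: total growth inhibition.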
# Experiments:
# Experiment in all cases: NCI tumour cell line growth inhibition, 48 h
# [1] = test system: A498 renal
# [2] = test system: HS 578T breast
# [3] = test system: TK-10 renal
# [4] = test system: MDA-MB-231 breast
# [5] = test system: SW-620 colon
# [6] = test system: LOX IMVI melanoma
# [7] = test system: M14 melanoma
# [8] = test system: MDA-MB-435
# [9] = test system: MALME-3M melanoma
# [10] = test system: UO-31 renal
# [11] = test system: CAKI-1 renal
# [12] = test system: OVCAR-4 ovarian
# [13] = test system: MOLT-4 leukemia
# [14] = test system: OVCAR-3 ovarian
# [15] = test system: ACHN renal
# [16] = test system: SF-539 CNS
# [17] = test system: SF-295 CNS
# [18] = test system: NCI-H23 lung
# [19] = test system: K-562 leukemia
# [20] = test system: T-47D breast
# [21] = test system: HCT-15 colon
# [22] = test system: HCT-116 colon
# [23] = test system: A549 NSCLC
# [24] = test system: CCRF-CEM leukemia
# [25] = test system: BT-549 breast
# [26] = test system: SK-MEL-28 melanoma
# [27] = test system: HOP-92 NSCLC
# [28] = test system: SNB-19 CNS
# [29] = test system: RPMI-8226 leukemia
# [30] = test system: SNB-75 CNS
# [31] = test system: NCI/ADR-RES ovarian
# [32] = test system: UACC-257 melanoma
# [33] = test system: MCF7 breast
# [34] = test system: IGROV1 ovarian
# [35] = test system: KM12 colon
# [36] = test system: NCI-H226 lung
# [37] = test system: COLO 205 colon
# [38] = test system: OVCAR-8 ovarian
# [39] = test system: NCI-H522 lung
# [40] = test system: SN12C renal
# [41] = test system: DU-145 prostate
# [42] = test system: HOP-62 NSCLC
# [43] = test system: 786-0 renal
# [44] = test system: NCI-H460 lung
# [45] = test system: UACC-62 melanoma
# [46] = test system: SK-MEL-2 melanoma
# [47] = test system: HCC-2998 colon
# [48] = test system: SK-OV-3 ovarian
# [49] = test system: PC-3 prostate
# [50] = test system: OVCAR-5 ovarian
# [51] = test system: SF-268 CNS
# [52] = test system: U251 CNS
# [53] = test system: RXF 393 renal
# [54] = test system: HL-60(TB) leukemia
# [55] = test system: HT29 colon
# [56] = test system: SK-MEL-5 melanoma
smiles,measurement,setting,value
CCOC(=O)Nc1ccc2nc(-c3cscn3)[nH]c2c1,GI50,[1],3.5 µM
same,TGI,[1],21 µM
same,GI50,[2],8.3 µM
same,TGI,[2],92.6 µM
same,GI50,[3],28.6 µM
same,TGI,[3],> 100 µM
same,GI50,[4],7.81 µM
same,TGI,[4],> 100 µM
same,GI50,[5],2.95 µM
same,TGI,[5],> 100 µM
same,GI50,[6],5.18 µM
same,TGI,[6],> 100 µM
same,GI50,[7],2.86 µM
same,TGI,[7],> 100 µM
same,GI50,[8],0.398 µM
same,TGI,[8],1.93 µM
same,GI50,[9],1.75 µM
same,TGI,[9],> 100 µM
same,GI50,[10],8.77 µM
same,TGI,[10],> 100 µM
same,GI50,[11],5.63 µM
same,TGI,[11],> 100 µM
same,GI50,[12],48.9 µM
same,TGI,[12],> 100 µM
same,GI50,[13],5.31 µM
same,TGI,[13],> 100 µM
same,GI50,[14],3.79 µM
same,TGI,[14],23.4 µM
same,GI50,[15],8.45 µM
same,TGI,[15],> 100 µM
same,GI50,[16],3.32 µM
same,TGI,[16],20.6 µM
same,GI50,[17],4.78 µM
same,TGI,[17],57.6 µM
same,GI50,[18],8.47 µM
same,TGI,[18],> 100 µM
same,GI50,[19],0.942 µM
same,TGI,[19],> 100 µM
same,GI50,[20],5.32 µM
same,TGI,[20],> 100 µM
same,GI50,[21],2.2 µM
same,TGI,[21],> 100 µM
same,GI50,[22],3.87 µM
same,TGI,[22],> 100 µM
same,GI50,[23],5.99 µM
same,TGI,[23],> 100 µM
same,GI50,[24],7.01 µM
same,TGI,[24],> 100 µM
same,GI50,[25],7.1 µM
same,TGI,[25],> 100 µM
same,GI50,[26],7.23 µM
same,TGI,[26],> 100 µM
same,GI50,[27],> 26.2 µM
same,TGI,[27],> 100 µM
same,GI50,[28],5.73 µM
same,TGI,[28],> 100 µM
same,GI50,[29],4.6 µM
same,TGI,[29],> 100 µM
same,GI50,[30],2.84 µM
same,TGI,[30],29.4 µM
same,GI50,[31],2.71 µM
same,TGI,[31],> 74.9 µM
same,GI50,[32],5.21 µM
same,TGI,[32],> 100 µM
same,GI50,[33],2.68 µM
same,TGI,[33],> 100 µM
same,GI50,[34],6.3 µM
same,TGI,[34],> 100 µM
same,GI50,[35],2.05 µM
same,TGI,[35],> 100 µM
same,GI50,[36],30.7 µM
same,TGI,[36],> 100 µM
same,GI50,[37],3.64 µM
same,TGI,[37],18.9 µM
same,GI50,[38],7.89 µM
same,TGI,[38],> 100 µM
same,GI50,[39],2.43 µM
same,TGI,[39],21 µM
same,GI50,[40],5.6 µM
same,TGI,[40],> 100 µM
same,GI50,[41],9.61 µM
same,TGI,[41],> 100 µM
same,GI50,[42],4.91 µM
same,TGI,[42],> 100 µM
same,GI50,[43],9.16 µM
same,TGI,[43],> 100 µM
same,GI50,[44],4.05 µM
same,TGI,[44],> 100 µM
same,GI50,[45],4.08 µM
same,TGI,[45],> 100 µM
same,GI50,[46],3.25 µM
same,TGI,[46],> 100 µM
same,GI50,[47],18.5 µM
same,TGI,[47],> 100 µM
same,GI50,[48],3.61 µM
same,TGI,[48],29.8 µM
same,GI50,[49],10.4 µM
same,TGI,[49],> 100 µM
same,GI50,[50],26.9 µM
same,TGI,[50],> 100 µM
same,GI50,[51],18 µM
same,TGI,[51],> 100 µM
same,GI50,[52],4.05 µM
same,TGI,[52],> 100 µM
same,GI50,[53],2.41 µM
same,TGI,[53],13.6 µM
same,GI50,[54],3.17 µM
same,TGI,[54],> 100 µM
same,GI50,[55],2.6 µM
same,TGI,[55],97.5 µM
same,GI50,[56],3.33 µM
same,TGI,[56],> 49.1 µM
